From patent publication US11427539B2, “Beta-hydroxy heterocyclic amines and their use in the treatment of hyperglycaemia” (ATROGI AB, priority 2017, dated 2022)
Where a name gives a salt, the structure may show the parent alone.

How the values were obtained:
[1] = system: Intracellular cAMP levels in differentiated cells (L6-myotubes); assay: Measurement of intracellular cAMP levels (alpha screen cAMP kit); format: cell-based; settings: 0.25 h; agonist final concentration 1×10-^5, 15 min; differentiated cells; relative to isoproterenol; read-out: Biological example 2: intracellular cAMP levels, activity compared to that of isoproterenol
Protocol: L6-myoblasts were grown in Dulbecco's Modified Eagle's Medium (DMEM) containing 4.5 g/l glucose supplemented with 10% fetal bovine serum, 2 mM L-Glutamine, 50 U/ml penicillin, 50 μg/ml streptomycin and 10 mM HEPES. Cells were plated at 1×10^5 cells per ml in 24-well plates. After reaching 90% confluence the cells were grown in medium containing 2% FBS for 7 days where upon cells differentiated into myotubes. Differentiated cells were serum-starved over night and stimulated with agonist, final concentration 1×10-^5, for 15 min in stimulation buffer (HBSS supplemented with 1% BSA, 5 mM HEPES and 1 mM IBMX, pH 7.4) The medium was then aspirated and to end the reaction 100 μL of 95% EtOH was added to each well of a 24-well plate and cells were kept in −20° C. over night. The EtOH was let to evaporate and 500 μL of lysis buffer (1% BSA, 5 mM HEPES and 0.3% Tween-20, pH 7.4) was added to each well before put in −80° C. for 30 min and then kept in −20° C. Intracellular cAMP levels were detected using an alpha screen cAMP kit (6760635D from Perkin Elmer). The activity for each compound is compared to that of isoproterenol.

[2] = system: Differentiated L6-myotubes; assay: Glucose uptake in differentiated L6-myotubes (3H-2-deoxy-glucose); format: cell-based; settings: agonist final concentration 1×10^−5; L6-myotubes; 3H-2-deoxy-glucose uptake; relative to isoproterenol; read-out: Biological example 1: glucose uptake, activity compared to that of isoproterenol

CCC[C@H]1CCC[C@@H]([C@H](O)c2cccc(O)c2)N1 [Example 37, (R)-(3-Hydroxyphenyl)((2S, 6S)-6-propylpiperidin-2-yl)methanol]
Emax [1]: < 25% | Emax [2]: 50 to 75%

CCC[C@@H]1CC[C@H]([C@@H](O)c2cccc(F)c2)N1 [Example 39, (S)-(3-Fluorophenyl)((2R,5R)-5-propylpyrrolidin-2-yl)methanol Hydrochloride]
Emax [1]: < 25% | Emax [2]: 50 to 75%

CCC[C@@H]1CC[C@H]([C@@H](O)c2cccc(O)c2)N1 [Example 40, 3-((S)-Hydroxy((2R,5R)-5-propylpyrrolidin-2-yl)methyl)phenol]
Emax [1]: < 25% | Emax [2]: 25 to 50%

CCC[C@H]1CC[C@@H]([C@H](O)c2cccc(F)c2)N1 [Example 41, (R)-(3-fluorophenyl)((2S,5S)-5-propylpyrrolidin-2-yl)methanol Hydrochloride]
Emax [1]: < 25% | Emax [2]: 50 to 75%

CCC[C@H]1CC[C@@H]([C@@H](O)c2cccc(F)c2)N1 [Example 42, (S)-(3-Fluorophenyl)((2S,5S)-5-propylpyrrolidin-2-yl)methanol Hydrochloride]
Emax [1]: < 25% | Emax [2]: 50 to 75%

CCC[C@@H]1CC[C@@H]([C@H](O)c2cccc(F)c2)N1 [Example 43, (R)-(3-Fluorophenyl)((2S,5R)-5-propylpyrrolidin-2-yl)methanol Hydrochloride]
Emax [1]: < 25% | Emax [2]: 25 to 50%

CCC[C@@H]1CC[C@@H]([C@@H](O)c2cccc(F)c2)N1 [Example 44, (S)-(3-Fluorophenyl)((2S,5R)-5-propylpyrrolidin-2-yl)methanol Hydrochloride]
Emax [1]: < 25% | Emax [2]: 50 to 75%

CCC[C@H]1CC[C@H]([C@H](O)c2cccc(F)c2)N1 [Example 45, (R)-(3-Fluorophenyl)((2R,5S)-5-propylpyrrolidin-2-yl)methanol]
Emax [1]: < 25% | Emax [2]: 50 to 75%

CCC[C@@H]1CC[C@H]([C@H](O)c2cccc(Cl)c2)N1 [Example 47, (R)-(3-Chlorophenyl)((2R,5R)-5-propylpyrrolidin-2-yl)methanol Maleate]
Emax [1]: < 25% | Emax [2]: 50 to 75%
